From the supplement of paper PMC10307832

What was measured:
Assay in all cases: relative viability (nuclei count vs DMSO), 5 days (fraction); higher = more cells survive
[1] = tested on: NCI-H1975
Outline: (§1)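 For relative viability, nuclei counts in treated wells were divided by those in vehicle wells. Lung cancer cell lines had been pin-tool dosed in 1536-well plates the day after seeding and cultured for 5 days, then fixed and stained in one step (final 0.05% Triton X-100, 1% formaldehyde, 1 ug/ml Hoechst) and imaged at 4×. Doses were one drug alone or a fixed anchor-drug dose plus five library-drug doses (not always all listed) in √10 steps, and values are duplicate-plate medians.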

[2] = tested on: SW 900
Outline: as §1

[3] = tested on: HCC-366
Outline: as §1

[4] = tested on: LXF-289
Outline: as §1

[5] = tested on: NCI-H1793
Outline: as §1

[6] = tested on: NCI-H1755
Outline: as §1

[7] = tested on: LC-2-ad
Outline: as §1

[8] = tested on: LU99A
Outline: as §1

[9] = tested on: EPLC-272H
Outline: as §1

[10] = tested on: NCI-H2170
Outline: as §1

[11] = tested on: LCLC-97TM1
Outline: as §1

[12] = tested on: UMC-11
Outline: as §1

[13] = tested on: COR-L 105
Outline: as §1

[14] = tested on: HOP-62
Outline: as §1

[15] = tested on: HCC-78
Outline: as §1

[16] = tested on: NCI-H1915
Outline: as §1

[17] = tested on: NCI-H460
Outline: as §1

[18] = tested on: NCI-H1944
Outline: as §1

[19] = tested on: NCI-H1792
Outline: as §1

[20] = tested on: NCI-H358
Outline: as §1

[21] = tested on: A-427
Outline: as §1

[22] = tested on: SK-LU-1
Outline: as §1

[23] = tested on: NCI-H2342
Outline: as §1

[24] = tested on: NCI-H2085
Outline: as §1

## C[C@@H]1CN(CC(=O)Nc2ccc3c(c2)Cc2cccc(-c4cc(=O)cc(N5CCOCC5)o4)c2S3)C[C@H](C)O1 + O=C(c1cc(Cc2n[nH]c(=O)c3ccccc23)ccc1F)N1CCN(C(=O)C2CC2)CC1 [Olaparib] (partner 8 µM)
[1]; first compound 0.04 µM
  relative viability: 0.78
[1]; first compound 0.1265 µM
  relative viability: 0.748
[1]; first compound 0.4 µM
  relative viability: 0.713
[1]; first compound 4 µM
  relative viability: 0.274
[2]; first compound 0.04 µM
  relative viability: 0.869
[2]; first compound 0.1265 µM
  relative viability: 0.993
[2]; first compound 0.4 µM
  relative viability: 0.815
[2]; first compound 4 µM
  relative viability: 0.445
[3]; first compound 0.04 µM
  relative viability: 0.43
[3]; first compound 0.1265 µM
  relative viability: 0.489
[3]; first compound 0.4 µM
  relative viability: 0.44
[3]; first compound 4 µM
  relative viability: 0.055
[4]; first compound 0.04 µM
  relative viability: 0.998
[4]; first compound 0.1265 µM
  relative viability: 1.1
[4]; first compound 0.4 µM
  relative viability: 1.21
[4]; first compound 4 µM
  relative viability: 1.05
[5]; first compound 0.04 µM
  relative viability: 1.01
[5]; first compound 0.1265 µM
  relative viability: 0.784
[5]; first compound 0.4 µM
  relative viability: 0.86
[5]; first compound 4 µM
  relative viability: 0.255
[6]; first compound 0.04 µM
  relative viability: 0.845
[6]; first compound 0.1265 µM
  relative viability: 0.918
[6]; first compound 0.4 µM
  relative viability: 0.833
[6]; first compound 4 µM
  relative viability: 0.958
[7]; first compound 0.04 µM
  relative viability: 0.657
[7]; first compound 0.1265 µM
  relative viability: 0.653
[7]; first compound 0.4 µM
  relative viability: 0.689
[7]; first compound 4 µM
  relative viability: 0.433
[8]; first compound 0.04 µM
  relative viability: 0.316
[8]; first compound 0.1265 µM
  relative viability: 0.282
[8]; first compound 0.4 µM
  relative viability: 0.259
[8]; first compound 4 µM
  relative viability: 0.246
[9]; first compound 0.04 µM
  relative viability: 0.956
[9]; first compound 0.1265 µM
  relative viability: 0.81
[9]; first compound 0.4 µM
  relative viability: 0.647
[9]; first compound 4 µM
  relative viability: 0.317
[10]; first compound 0.04 µM
  relative viability: 0.648
[10]; first compound 0.1265 µM
  relative viability: 0.609
[10]; first compound 0.4 µM
  relative viability: 0.578
[10]; first compound 4 µM
  relative viability: 0.523
[11]; first compound 0.1265 µM
  relative viability: 0.381
[11]; first compound 0.4 µM
  relative viability: 0.462
[11]; first compound 4 µM
  relative viability: 0.37
[12]; first compound 0.04 µM
  relative viability: 0.32
[12]; first compound 0.1265 µM
  relative viability: 0.351
[12]; first compound 0.4 µM
  relative viability: 0.86
[12]; first compound 4 µM
  relative viability: 0.272
[13]; first compound 0.04 µM
  relative viability: 0.772
[13]; first compound 0.1265 µM
  relative viability: 0.786
[13]; first compound 0.4 µM
  relative viability: 0.822
[13]; first compound 4 µM
  relative viability: 0.647
[14]; first compound 0.04 µM
  relative viability: 0.283
[14]; first compound 0.1265 µM
  relative viability: 0.442
[14]; first compound 0.4 µM
  relative viability: 0.452
[14]; first compound 4 µM
  relative viability: 0.0812
[15]; first compound 0.04 µM
  relative viability: 0.735
[15]; first compound 0.1265 µM
  relative viability: 0.807
[15]; first compound 0.4 µM
  relative viability: 0.925
[15]; first compound 4 µM
  relative viability: 0.595
[16]; first compound 0.04 µM
  relative viability: 0.25
[16]; first compound 0.1265 µM
  relative viability: 0.248
[16]; first compound 0.4 µM
  relative viability: 0.265
[16]; first compound 4 µM
  relative viability: 0.182
[17]; first compound 0.04 µM
  relative viability: 0.506
[17]; first compound 0.1265 µM
  relative viability: 0.444
[17]; first compound 0.4 µM
  relative viability: 0.502
[17]; first compound 4 µM
  relative viability: 0.112
[18]; first compound 0.1265 µM
  relative viability: 0.371
[18]; first compound 0.4 µM
  relative viability: 0.386
[18]; first compound 4 µM
  relative viability: 0.321
[19]; first compound 0.04 µM
  relative viability: 0.715
[19]; first compound 0.1265 µM
  relative viability: 0.407
[19]; first compound 0.4 µM
  relative viability: 0.315
[19]; first compound 4 µM
  relative viability: 0.102
[20]; first compound 0.04 µM
  relative viability: 0.654
[20]; first compound 0.1265 µM
  relative viability: 0.66
[20]; first compound 0.4 µM
  relative viability: 0.625
[20]; first compound 4 µM
  relative viability: 0.178
[21]; first compound 0.04 µM
  relative viability: 0.658
[21]; first compound 0.1265 µM
  relative viability: 0.734
[21]; first compound 0.4 µM
  relative viability: 0.731
[21]; first compound 4 µM
  relative viability: 0.669
[22]; first compound 0.04 µM
  relative viability: 0.566
[22]; first compound 0.1265 µM
  relative viability: 0.667
[22]; first compound 0.4 µM
  relative viability: 0.575
[22]; first compound 4 µM
  relative viability: 0.219
[23]; first compound 0.04 µM
  relative viability: 0.567
[23]; first compound 0.1265 µM
  relative viability: 0.52
[23]; first compound 0.4 µM
  relative viability: 0.52
[23]; first compound 4 µM
  relative viability: 0.419
[24]; first compound 0.04 µM
  relative viability: 0.755
[24]; first compound 0.1265 µM
  relative viability: 0.786
[24]; first compound 0.4 µM
  relative viability: 0.781
[24]; first compound 4 µM
  relative viability: 0.345
